# Test results reported in PubChem BioAssay (NCI).
#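 Tested at 5 concentrations; 48 h exposure; 96-well plates; endpoints linearly interpolated, else capped at highest concentration. At the GI50, growth is halved. TGI: total growth inhibition.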
# Tests used:
# Test in all cases: growth of human tumour cells (NCI), 48 h
# LOX IMVI melanoma = test system: LOX IMVI melanoma
# U251 CNS = test system: U251 CNS
# RXF 393 renal = test system: RXF 393 renal
# DU-145 prostate = test system: DU-145 prostate
# HCT-15 colon = test system: HCT-15 colon
# SR leukemia = test system: SR leukemia
# UACC-62 melanoma = test system: UACC-62 melanoma
# SF-268 CNS = test system: SF-268 CNS
# CAKI-1 renal = test system: CAKI-1 renal
# MDA-MB-468 breast = test system: MDA-MB-468 breast
# MDA-MB-435 = test system: MDA-MB-435
# MOLT-4 leukemia = test system: MOLT-4 leukemia
# HOP-62 NSCLC = test system: HOP-62 NSCLC
# TK-10 renal = test system: TK-10 renal
# SK-MEL-28 melanoma = test system: SK-MEL-28 melanoma
# HCT-116 colon = test system: HCT-116 colon
# SF-539 CNS = test system: SF-539 CNS
# SK-OV-3 ovarian = test system: SK-OV-3 ovarian
# PC-3 prostate = test system: PC-3 prostate
# 786-0 renal = test system: 786-0 renal
# CCRF-CEM leukemia = test system: CCRF-CEM leukemia
# SF-295 CNS = test system: SF-295 CNS
# NCI-H460 lung = test system: NCI-H460 lung
# UO-31 renal = test system: UO-31 renal
# A549 NSCLC = test system: A549 NSCLC
# OVCAR-3 ovarian = test system: OVCAR-3 ovarian
# SN12C renal = test system: SN12C renal
# MALME-3M melanoma = test system: MALME-3M melanoma
# UACC-257 melanoma = test system: UACC-257 melanoma
smiles,measurement,setting,value
CC(=O)Oc1ccccc1C(=O)[Se]C(=NC(C)C)NC(C)C,GI50,LOX IMVI melanoma,1.75 µM
same,TGI,LOX IMVI melanoma,3.42 µM
same,GI50,U251 CNS,1.53 µM
same,TGI,U251 CNS,3.2 µM
same,GI50,RXF 393 renal,1.72 µM
same,TGI,RXF 393 renal,3.17 µM
same,GI50,DU-145 prostate,1.94 µM
same,TGI,DU-145 prostate,3.59 µM
same,GI50,HCT-15 colon,1.84 µM
same,TGI,HCT-15 colon,3.69 µM
same,GI50,SR leukemia,2.11 µM
same,TGI,SR leukemia,5.44 µM
same,GI50,UACC-62 melanoma,1.94 µM
same,TGI,UACC-62 melanoma,4.15 µM
same,GI50,SF-268 CNS,2.34 µM
same,TGI,SF-268 CNS,6.35 µM
same,GI50,CAKI-1 renal,1.68 µM
same,TGI,CAKI-1 renal,3.05 µM
same,GI50,MDA-MB-468 breast,1.75 µM
same,TGI,MDA-MB-468 breast,3.48 µM
same,GI50,MDA-MB-435,1.73 µM
same,TGI,MDA-MB-435,3.24 µM
same,GI50,MOLT-4 leukemia,2.35 µM
same,TGI,MOLT-4 leukemia,6.15 µM
same,GI50,HOP-62 NSCLC,0.777 µM
same,TGI,HOP-62 NSCLC,2.4 µM
same,GI50,TK-10 renal,1.63 µM
same,TGI,TK-10 renal,3.07 µM
same,GI50,SK-MEL-28 melanoma,1.79 µM
same,TGI,SK-MEL-28 melanoma,3.27 µM
same,GI50,HCT-116 colon,1.6 µM
same,TGI,HCT-116 colon,3.14 µM
same,GI50,SF-539 CNS,1.75 µM
same,TGI,SF-539 CNS,3.15 µM
same,GI50,SK-OV-3 ovarian,1.81 µM
same,TGI,SK-OV-3 ovarian,3.33 µM
same,GI50,PC-3 prostate,1.7 µM
same,TGI,PC-3 prostate,3.61 µM
same,GI50,786-0 renal,1.74 µM
same,TGI,786-0 renal,3.21 µM
same,GI50,CCRF-CEM leukemia,3.17 µM
same,TGI,CCRF-CEM leukemia,> 100 µM
same,GI50,SF-295 CNS,0.369 µM
same,TGI,SF-295 CNS,1.63 µM
same,GI50,NCI-H460 lung,0.815 µM
same,TGI,NCI-H460 lung,4.39 µM
same,GI50,UO-31 renal,1.68 µM
same,TGI,UO-31 renal,3.05 µM
same,GI50,A549 NSCLC,3.08 µM
same,TGI,A549 NSCLC,> 100 µM
same,GI50,OVCAR-3 ovarian,1.9 µM
same,TGI,OVCAR-3 ovarian,3.56 µM
same,GI50,SN12C renal,1.72 µM
same,TGI,SN12C renal,3.16 µM
same,GI50,MALME-3M melanoma,1.86 µM
same,TGI,MALME-3M melanoma,3.45 µM
same,GI50,UACC-257 melanoma,1.96 µM
same,TGI,UACC-257 melanoma,3.75 µM
